Experimental data from ChEMBL document CHEMBL1201862, “PubChem BioAssay data set” (2004).
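Assay format: 96-well plates, 48-hour exposure. GI50 = concentration required for 50% inhibition of growth.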 Active and inactive are the calls of the source. No stated cut-off is given here; in the data, active = GI50 up to about 1.1 µM and inactive = higher.

Legend:
Test in all cases: NCI anticancer screen, dose series, 48 h
[1] = test system: A549
[2] = test system: ACHN
[3] = test system: COLO 205
[4] = test system: DMS-114
[5] = test system: DMS-273
[6] = test system: HCT-116
[7] = test system: HCT-15
[8] = test system: HL-60
[9] = test system: K562
[10] = test system: LOX IMVI
[11] = test system: MOLT-4
[12] = test system: OVCAR-5
[13] = test system: OVCAR-8
[14] = test system: SK-MEL-28
[15] = test system: SK-OV-3
[16] = test system: SNB-19
[17] = test system: U-251
[18] = test system: UACC-62
[19] = test system: UO-31
[20] = test system: OVCAR-3

Compound: COc1cc(C2C(C(=O)O)=C(CO)Oc3cc4c(cc32)OCO4)cc(OC)c1OC (configuration not stated)
- GI50 [1]: > 100 µM (inactive)
- GI50 [2]: > 100 µM (inactive)
- GI50 [3]: > 100 µM (inactive)
- GI50 [4]: > 100 µM (inactive)
- GI50 [5]: > 100 µM (inactive)
- GI50 [6]: > 100 µM (inactive)
- GI50 [7]: > 100 µM
- GI50 [8]: > 100 µM (inactive)
- GI50 [9]: > 100 µM (inactive)
- GI50 [10]: > 100 µM (inactive)
- GI50 [11]: > 100 µM (inactive)
- GI50 [12]: > 100 µM (inactive)
- GI50 [13]: > 100 µM (inactive)
- GI50 [14]: 83.6 µM (inactive)
- GI50 [15]: > 100 µM (inactive)
- GI50 [16]: > 100 µM (inactive)
- GI50 [17]: > 100 µM (inactive)
- GI50 [18]: > 100 µM (inactive)
- GI50 [19]: > 100 µM (inactive)

Compound: NCCCNCCSSCc1ccccc1CSSCCNCCCN
- GI50 [1]: > 100 µM (inactive)
- GI50 [2]: 37 µM (inactive)
- GI50 [3]: 39.4 µM (inactive)
- GI50 [4]: 57.3 µM (inactive)
- GI50 [5]: > 100 µM (inactive)
- GI50 [7]: 57.1 µM
- GI50 [8]: 9.93 µM (inactive)
- GI50 [9]: 23.6 µM (inactive)
- GI50 [10]: 61.1 µM (inactive)
- GI50 [11]: 22 µM (inactive)
- GI50 [20]: 73.8 µM (inactive)
- GI50 [12]: > 100 µM (inactive)
- GI50 [13]: > 100 µM (inactive)
- GI50 [14]: 75 µM (inactive)
- GI50 [15]: > 100 µM (inactive)
- GI50 [16]: > 100 µM (inactive)
- GI50 [17]: > 100 µM (inactive)
- GI50 [18]: 34.1 µM (inactive)
- GI50 [19]: 60.5 µM (inactive)

Compound: CN(C)c1ccc(N2C(=S)SC(=N\c3ccccc3)/C2=N/c2ccccc2)cc1
- GI50 [3]: > 100 µM (inactive)
- GI50 [6]: > 100 µM (inactive)
- GI50 [7]: > 100 µM
- GI50 [8]: > 100 µM (inactive)
- GI50 [9]: > 100 µM (inactive)
- GI50 [11]: > 10 µM (inactive)
- GI50 [20]: > 100 µM (inactive)
- GI50 [12]: > 100 µM (inactive)
- GI50 [13]: > 100 µM (inactive)
- GI50 [14]: > 100 µM (inactive)
- GI50 [15]: > 100 µM (inactive)
- GI50 [16]: > 100 µM (inactive)
- GI50 [17]: > 100 µM (inactive)
- GI50 [18]: > 100 µM (inactive)
- GI50 [19]: > 100 µM (inactive)

Compound: CC(NC(C#N)CC12CC3CC(CC(C3)C1)C2)c1ccccc1 (configuration not stated)
- GI50 [1]: > 100 µM (inactive)
- GI50 [2]: 47.6 µM (inactive)
- GI50 [3]: 38.1 µM (inactive)
- GI50 [6]: 34.8 µM (inactive)
- GI50 [7]: 56.8 µM
- GI50 [8]: 18.5 µM (inactive)
- GI50 [9]: 23.1 µM (inactive)
- GI50 [10]: 17.8 µM (inactive)
- GI50 [11]: 27.9 µM (inactive)
- GI50 [20]: 13.6 µM (inactive)
- GI50 [12]: 63.8 µM (inactive)
- GI50 [13]: 60.8 µM (inactive)
- GI50 [14]: > 100 µM (inactive)
- GI50 [15]: 59.6 µM (inactive)
- GI50 [16]: > 100 µM (inactive)
- GI50 [17]: 42.2 µM (inactive)
- GI50 [18]: 84.3 µM (inactive)
- GI50 [19]: 77.8 µM (inactive)

Compound: NC(=S)N/N=C1\c2ccccc2CCC1CCC1(O)CCc2ccccc2C1=O (configuration not stated)
- GI50 [1]: 36.1 µM (inactive)
- GI50 [2]: 35.5 µM (inactive)
- GI50 [3]: 17.7 µM (inactive)
- GI50 [6]: 18.7 µM (inactive)
- GI50 [7]: 39.7 µM
- GI50 [8]: 2.74 µM (inactive)
- GI50 [9]: > 10 µM (inactive)
- GI50 [10]: 19.3 µM (inactive)
- GI50 [11]: 24.5 µM (inactive)
- GI50 [20]: 18 µM (inactive)
- GI50 [12]: 26 µM (inactive)
- GI50 [13]: 16.6 µM (inactive)
- GI50 [14]: 20.7 µM (inactive)
- GI50 [15]: > 100 µM (inactive)
- GI50 [16]: 34.8 µM (inactive)
- GI50 [17]: 28.6 µM (inactive)
- GI50 [18]: 17.8 µM (inactive)
- GI50 [19]: 12 µM (inactive)

Compound: COC(=O)C1=C(OC(=O)/C=C/c2ccc(Cl)cc2)C(C(=O)OC)[C@@]2(O)[C@@H](C(=O)OC)[C@H](C)C[C@@H]1[C@@H]2C(=O)OC (some centres not stated)
- GI50 [1]: 23.2 µM (inactive)
- GI50 [2]: 22.2 µM (inactive)
- GI50 [3]: 17.1 µM (inactive)
- GI50 [6]: 23.8 µM (inactive)
- GI50 [7]: 19.3 µM
- GI50 [8]: 13.6 µM (inactive)
- GI50 [9]: 21.6 µM (inactive)
- GI50 [10]: 13.1 µM (inactive)
- GI50 [11]: 15.8 µM (inactive)
- GI50 [20]: 30.8 µM (inactive)
- GI50 [12]: 28.4 µM (inactive)
- GI50 [13]: 14.6 µM (inactive)
- GI50 [14]: 26.4 µM (inactive)
- GI50 [15]: 24.6 µM (inactive)
- GI50 [16]: 30.8 µM (inactive)
- GI50 [17]: 28.4 µM (inactive)
- GI50 [18]: 17.6 µM (inactive)
- GI50 [19]: 27 µM (inactive)
